Among the data in publication PMC10051292, “Neoprzewaquinone A Inhibits Breast Cancer Cell Migration and Promotes Smooth Muscle Relaxation by Targeting PIM1 to Block ROCK2/STAT3 Pathway” (International Journal of Molecular Sciences, 2023) are IC50 values, retold here.

In the experiment the target is PIM1 (Homo sapiens, UniProt P11309). The experiment can be described thus: ADP-Glo in vitro kinase assay; supported by CETSA western blot in MDA-MB-231 (about […] °C stabilization). Format: biochemical. In general terms: In ADP-Glo the light output rises with the ADP produced.
Sequence of PIM1 (P11309 whole entry): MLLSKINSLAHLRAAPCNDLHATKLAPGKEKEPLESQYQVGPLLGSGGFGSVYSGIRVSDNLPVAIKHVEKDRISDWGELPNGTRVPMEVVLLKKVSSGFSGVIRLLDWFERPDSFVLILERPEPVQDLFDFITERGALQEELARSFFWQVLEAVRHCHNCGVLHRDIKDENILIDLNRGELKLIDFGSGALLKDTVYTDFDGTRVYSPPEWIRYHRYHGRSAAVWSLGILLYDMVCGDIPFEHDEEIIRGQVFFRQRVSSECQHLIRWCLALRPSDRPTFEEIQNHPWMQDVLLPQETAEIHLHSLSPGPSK

The compound `C=C1CCCc2c(ccc3c2C(=O)C(=O)c2c(C)coc2-3)/C(C)=C/CCc2c1ccc1c2C(=O)C(=O)c2c(C)coc2-1` [NEO, Neoprzewaquinone A] came in with an IC50 of 560 nM.

One may read the IC50 as the concentration that inhibits the measured activity by half. Low readings indicate higher potency, high ones lower potency.
